Measurements taken from patent US8642554B2, “Smac mimetic dimers and trimers useful as anti-cancer agents” (Joyant Pharmaceuticals, Inc., priority 2007, dated 2014).

How the values were obtained:
[1] = biological target: truncated XIAP containing only BIR1, BIR2, and BIR3 domains (Homo sapiens, UniProt P98170); assay: Fluorescent polarization (FP) assay; assay type: binding
Experimental: Increasing concentrations of Smac compounds are incubated with 2 nM of labeled peptide (fluorescein labeled 10mer peptide with AVPI 4 amino acids at its N terminus-Alexa Fluor 488) and truncated XIAP containing only BIR1, BIR2, and BIR3 domains at room temperature for 1 hour. Fluorescence reading, indicative of the bound portion of the labeled peptide, is measured in milipolarization units (mP). The more compound added, less fluorescein labeled peptide bind to the protein due to the competitive binding and less fluorescence signal is released.
Based on this principle, we obtain the Ki value that evaluates compound's binding affinity.

[2] = tested on: HCC461 cells; assay: Cell viability assay in HCC461 cells (WST-1); assay type: cell-based; settings: 48 hrs incubation
Experimental: HCC461 cells plated in 96 well plates at 5×10^4/ml cell density are treated with 50× synthetic Smac mimetic compounds (final concentration range between 30 uM and 0.001 uM). After 48 hrs incubation at 37° C. and 5% CO2 viability of the cells are measured using Cell Proliferation Reagent WST-1 assay kit (Roche Cat #11 644 807 001).
WST-1 assay principle: The tetrazolium salts are cleaved to formazan by cellular enzymes. An expansion in the number of viable cells results in an increase in the overall activity of mitochondrial dehydrogenases in the samples. This augmentation in the enzyme activity leads to an increase in the amount of formazan dye formed, which directly correlates to the number of metabolically active cells in the culture. Quantification of the formazan dye produced by metabolically active cells by using a microplate (ELISA) reader at 420-480 nm.

[3] = tested on: Caspase3 activity in Hela S100 (blocked by IAPs); assay: In vitro caspase-3 activation assay in Hela S100; assay type: biochemical; settings: 100 nM compound, activity compared with reference compound, Table 1 experiment
Experimental: Caspase3 in most cell extracts can be activated by the addition of 1 mM dATP through the mitochondria caspase pathway. […] Taking advantage of this feature, we use 100 nM of synthetic Smac mimetic compound to test its ability to eliminate IAPs in the Hela S100 and fully induce Caspase3 activity. The In Vitro Caspase3 assay is carried out at 30° C., incubating 100 nM compounds with 30 ug of Hela S100, 1 mM dATP, 10 uM Caspase3 fluorogenic substrate (Caspase3 Substrate II, Fluorogenic, #235425 from Calbiochem). The readout is caspase-3 activity represented by relative fluorogenic unit, which is recorded kinetically. The slope in linear region of the curve for each compound is calculated.
Percent activity data is presented by comparing activity of the test compound with activity of the reference compound in Caspase-3 activation assay in vitro. The ratio of each synthetic compound's slope versus the slope of control reflects in vitro caspase-3 activation ability of compounds.

[4] = HCC461, 48 h, Table 2 experiment
[5] = HCC461, 48 h, Table 1 experiment

Chain of truncated XIAP containing only BIR1, BIR2, and BIR3 domains (P98170 26-330 limits assumed): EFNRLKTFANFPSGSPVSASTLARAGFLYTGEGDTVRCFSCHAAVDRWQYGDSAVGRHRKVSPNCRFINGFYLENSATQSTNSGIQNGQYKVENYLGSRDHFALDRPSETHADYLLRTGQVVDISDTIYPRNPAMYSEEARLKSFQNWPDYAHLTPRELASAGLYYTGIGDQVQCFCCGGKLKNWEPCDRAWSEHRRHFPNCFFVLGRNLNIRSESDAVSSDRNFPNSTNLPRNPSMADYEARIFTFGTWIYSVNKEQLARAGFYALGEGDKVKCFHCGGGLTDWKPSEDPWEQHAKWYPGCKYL

Row | Ki ([1]; Table 2 experiment) [µM] | IC50 [2, 4] [µM] | Ki ([1]; Table 1 experiment) [µM] | % Activity at 100 nM [3] [%] | IC50 [2, 5] [µM] | Structure (SMILES) | also measured
1 | 0.34 | 0.003 | – | – | – | CN[C@@H](C)C(=O)N[C@H](C(=O)N1C[C@@H](NC(=O)[C@@H]2CC[C@](C)(C(=O)N[C@H]3C[C@@H](C(=O)N[C@@H]4CCCc5ccccc54)N(C(=O)[C@@H](NC(=O)[C@H](C)NC)C(C)(C)C)C3)C2(C)C)C[C@H]1C(=O)N[C@@H]1CCCc2ccccc21)C(C)(C)C [compound 31] | –
2 | – | – | 0.3 | 108 | 0.026 | CN[C@@H](C)C(=O)N[C@H](C(=O)N1C[C@@H](NS(=O)(=O)c2cccc(S(=O)(=O)N[C@H]3C[C@@H](C(=O)N[C@@H]4CCCc5ccccc54)N(C(=O)[C@@H](NC(=O)[C@H](C)NC)C(C)(C)C)C3)c2)C[C@H]1C(=O)N[C@@H]1CCCc2ccccc21)C(C)(C)C.Cl.Cl [compound 13] | –
3 | – | – | 0.35 | – | – | CN[C@@H](C)C(=O)NC(C(=O)C1C[C@@H](NC(=O)C2CCCC2C(=O)N[C@H]2CC(C(=O)N[C@@H]3CCCc4ccccc43)N(C(=O)[C@@H](NC(=O)[C@H](C)NC)C(C)(C)C)C2)CC1C(=O)N[C@@H]1CCCc2ccccc21)C(C)(C)C.Cl.Cl (single isomer, unassigned) [compound 18] | % Activity at 100 nM ([3]; 0.1 µM): 107%; IC50 ([2]; Table 1 experiment): 0.033 µM
4 | 0.25 | 0.024 | – | – | – | CN[C@@H](C)C(=O)NC(C(=O)C1C[C@@H](NC(=O)C2CCCC(C(=O)N[C@H]3CC(C(=O)N[C@@H]4CCCc5ccccc54)N(C(=O)[C@@H](NC(=O)[C@H](C)NC)C(C)(C)C)C3)C2)CC1C(=O)N[C@@H]1CCCc2ccccc21)C(C)(C)C (stereo partly shown) [compound 25] | –
5 | – | – | 0.5 | – | 0.019 | CN[C@@H](C)C(=O)NC(C(=O)C1C[C@@H](NC(=O)C2CCCC2C(=O)N[C@H]2CC(C(=O)N[C@@H]3CCCc4ccccc43)N(C(=O)[C@@H](NC(=O)[C@H](C)NC)C(C)(C)C)C2)CC1C(=O)N[C@@H]1CCCc2ccccc21)C(C)(C)C.Cl.Cl (single isomer, unassigned) [compound 17] | % Activity at 100 nM ([3]; 0.1 µM): 92%
6 | – | – | 0.45 | 116 | 0.009 | CN[C@@H](C)C(=O)N[C@H](C(=O)N1C[C@@H](NC(=O)c2cc(C(=O)N[C@H]3C[C@@H](C(=O)N[C@@H]4CCCc5ccccc54)N(C(=O)[C@@H](NC(=O)[C@H](C)NC)C(C)(C)C)C3)[nH]n2)C[C@H]1C(=O)N[C@@H]1CCCc2ccccc21)C(C)(C)C.Cl.Cl [compound 15] | –
7 | – | – | – | – | 0.263 | C#CC[C@H](NC(=O)[C@H](C)NC)C(=O)N1C[C@@H](NC(=O)[C@H](O)[C@@H](O)C(=O)N[C@H]2C[C@@H](C(=O)N[C@@H]3CCCc4ccccc43)N(C(=O)[C@H](CC#C)NC(=O)[C@H](C)NC)C2)C[C@H]1C(=O)N[C@@H]1CCCc2ccccc21 [compound 22] | –
8 | 0.23 | 0.015 | – | – | – | CN[C@@H](C)C(=O)N[C@H](C(=O)N1C[C@@H](NC(=O)c2cc(N)cc(C(=O)N[C@H]3C[C@@H](C(=O)N[C@@H]4CCCc5ccccc54)N(C(=O)[C@@H](NC(=O)[C@H](C)NC)C(C)(C)C)C3)c2)C[C@H]1C(=O)N[C@@H]1CCCc2ccccc21)C(C)(C)C [compound 32] | –
9 | 0.23 | 0.002 | – | – | – | CN[C@@H](C)C(=O)N[C@H](C(=O)N1C[C@@H](NC(=O)c2c(F)c(F)c(F)c(C(=O)N[C@H]3C[C@@H](C(=O)N[C@@H]4CCCc5ccccc54)N(C(=O)[C@@H](NC(=O)[C@H](C)NC)C(C)(C)C)C3)c2F)C[C@H]1C(=O)N[C@@H]1CCCc2ccccc21)C(C)(C)C [compound 28] | –
10 | 0.24 | 0.005 | – | – | – | CN[C@@H](C)C(=O)N[C@H](C(=O)N1C[C@@H](NC(=O)C23CC4CC(C2)CC(C(=O)N[C@H]2C[C@@H](C(=O)N[C@@H]5CCCc6ccccc65)N(C(=O)[C@@H](NC(=O)[C@H](C)NC)C(C)(C)C)C2)(C4)C3)C[C@H]1C(=O)N[C@@H]1CCCc2ccccc21)C(C)(C)C [compound 29] | –
11 | – | – | 0.4 | 104 | 0.002 | CN[C@@H](C)C(=O)N[C@H](C(=O)N1C[C@@H](NC(=O)c2ccc(C(=O)N[C@H]3C[C@@H](C(=O)N[C@@H]4CCCc5ccccc54)N(C(=O)[C@@H](NC(=O)[C@H](C)NC)C(C)(C)C)C3)s2)C[C@H]1C(=O)N[C@@H]1CCCc2ccccc21)C(C)(C)C.Cl.Cl [compound 12] | –
12 | 0.29 | 0.008 | – | – | – | CN[C@@H](C)C(=O)N[C@H](C(=O)N1C[C@@H](NC(=O)[C@H]2CC[C@@](C)(C(=O)N[C@H]3C[C@@H](C(=O)N[C@@H]4CCCc5ccccc54)N(C(=O)[C@@H](NC(=O)[C@H](C)NC)C(C)(C)C)C3)C2(C)C)C[C@H]1C(=O)N[C@@H]1CCCc2ccccc21)C(C)(C)C [compound 30] | –
13 | 0.32 | 0.023 | – | – | – | CN[C@@H](C)C(=O)N[C@H](C(=O)N1C[C@@H](NC(=O)CC(C)(O)CC(=O)N[C@H]2C[C@@H](C(=O)N[C@@H]3CCCc4ccccc43)N(C(=O)[C@@H](NC(=O)[C@H](C)NC)C(C)(C)C)C2)C[C@H]1C(=O)N[C@@H]1CCCc2ccccc21)C(C)(C)C [compound 26] | –
14 | 0.35 | – | – | – | – | CN[C@@H](C)C(=O)NC(C(=O)C1C[C@@H](NC(=O)C2CCCC2C(=O)N[C@H]2CC(C(=O)N[C@@H]3CCCc4ccccc43)N(C(=O)[C@@H](NC(=O)[C@H](C)NC)C(C)(C)C)C2)CC1C(=O)N[C@@H]1CCCc2ccccc21)C(C)(C)C (stereo partly shown) [compound 24] | IC50 ([2]; Table 2 experiment): 0.021 µM
15 | 0.25 | 0.082 | – | – | – | CN[C@@H](C)C(=O)N[C@H](C(=O)N1C[C@@H](NC(=O)COCC(=O)N[C@H]2C[C@@H](C(=O)N[C@@H]3CCCc4ccccc43)N(C(=O)[C@@H](NC(=O)[C@H](C)NC)C(C)(C)C)C2)C[C@H]1C(=O)N[C@@H]1CCCc2ccccc21)C(C)(C)C [compound 27] | –
16 | 0.05 | – | – | – | – | CN[C@@H](C)C(=O)NC(C(=O)C1C[C@@H](NC(=O)C2CCCC2C(=O)N[C@H]2CC(C(=O)N[C@@H]3CCCc4ccccc43)N(C(=O)[C@@H](NC(=O)[C@H](C)NC)C(C)(C)C)C2)CC1C(=O)N[C@@H]1CCCc2ccccc21)C(C)(C)C (stereo partly shown) [compound 23] | IC50 ([2]; Table 2 experiment): 0.002 µM
17 | – | – | 0.44 | 86 | 0.026 | CN[C@@H](C)C(=O)N[C@H](C(=O)N1C[C@@H](NC(=O)c2cc(O)cc(C(=O)N[C@H]3C[C@@H](C(=O)N[C@@H]4CCCc5ccccc54)N(C(=O)[C@@H](NC(=O)[C@H](C)NC)C(C)(C)C)C3)c2)C[C@H]1C(=O)N[C@@H]1CCCc2ccccc21)C(C)(C)C.Cl.Cl [compound 14] | –
18 | – | – | 0.4 | 115 | 0.074 | CN[C@@H](C)C(=O)N[C@H](C(=O)N1C[C@@H](NC(=O)CN(C)CC(=O)N[C@H]2C[C@@H](C(=O)N[C@@H]3CCCc4ccccc43)N(C(=O)[C@@H](NC(=O)[C@H](C)NC)C(C)(C)C)C2)C[C@H]1C(=O)N[C@@H]1CCCc2ccccc21)C(C)(C)C.Cl.Cl.Cl [compound 16] | –
19 | – | – | 0.45 | 120 | 0.007 | CN[C@@H](C)C(=O)NC(C(=O)C1C[C@@H](NC(=O)c2cccc(C(=O)N[C@H]3CC(C(=O)N[C@@H]4CCCc5ccccc54)N(C(=O)[C@@H](NC(=O)[C@H](C)NC)C(C)(C)C)C3)c2)CC1C(=O)N[C@@H]1CCCc2ccccc21)C(C)(C)C.Cl.Cl (stereo partly shown) [compound 19] | –
20 | 0.15 | 0.063 | 0.35 | 100 | 0.082 | CN[C@@H](C)C(=O)N[C@@H](CC#CC#CC[C@H](NC(=O)[C@H](C)NC)C(=O)N1CCC[C@H]1C(=O)N[C@@H]1CCCc2ccccc21)C(=O)N1CCC[C@H]1C(=O)N[C@@H]1CCCc2ccccc21.Cl.Cl [Ref cpd, reference compound] | –
21 | – | – | – | – | 0.101 | CN[C@@H](C)C(=O)N[C@H](C(=O)N1C[C@@H](NC(=O)[C@H](O)[C@@H](O)C(=O)N[C@H]2C[C@@H](C(=O)N[C@@H]3CCCc4ccccc43)N(C(=O)[C@@H](NC(=O)[C@H](C)NC)C(C)(C)C)C2)C[C@H]1C(=O)N[C@@H]1CCCc2ccccc21)C(C)(C)C [compound 21] | –

Row | Structure (SMILES) | Ki ([1]; Table 2 experiment) [µM] | IC50 [2, 4] [µM] | Ki ([1]; Table 1 experiment) [µM] | % Activity at 100 nM [3] [%] | IC50 [2, 5] [µM] | also measured
22 | C#CC[C@H](NC(=O)[C@H](C)NC)C(=O)N1C[C@@H](NC(=O)c2cccc(C(=O)N[C@H]3C[C@@H](C(=O)N[C@@H]4CCCc5ccccc54)N(C(=O)[C@H](CC#C)NC(=O)[C@H](C)NC)C3)n2)C[C@H]1C(=O)N[C@@H]1CCCc2ccccc21 [compound 20] | – | – | – | – | 0.222 | –
